The source of these data is US20200171034A1, “Methods Of Treating Follicular Lymphoma” (Janssen Biotech, Inc., priority 2018, published 2020).

The test system of this assay is relapsed/refractory (R/R) follicular lymphoma (FL). The experiment in a line: DAWN study (NCT01779791): phase 2, single-arm ibrutinib monotherapy. The settings on record: patients with R/R FL, ibrutinib 560 mg once daily. The format is in vivo, humans. An excerpt: Detailed methodology for the DAWN trial is published in Gopal A K, et al. J Clin Oncol. 2018; 36:2405-2412. […] The primary end point was overall response rate (ORR=complete response [CR]+partial response [PR]), assessed by an independent review committee using the International Working Group Revised Response Criteria for Malignant Lymphoma.

Take `C=CC(=O)N1CCC[C@@H](n2nc(-c3ccc(Oc4ccccc4)cc3)c3c(N)ncnc32)C1` [ibrutinib, Ibrutinib]: the “duration of response (median) in responders” value was 19.4 months. For the same compound, the “overall response rate (ORR = complete response + partial response)” value (independent review committee, 95% CI 13.7-29.7) was 20.9%.
